Assay results reported in patent EP4744680A1, “TARGETED CHEMICAL DRUG AND PREPARATION METHOD THEREFOR, PHARMACEUTICAL COMPOSITION, AND USE OF TARGETED CHEMICAL DRUG” (Bai Yao Zhi Da (Beijing) Nanobio Technology Co., Ltd., priority 2023, dated 2025).

Legend:
[1] = Body weight in the N87 study of the Example 1 drug; assay type: in vivo, mouse (BALB/c nude); details: 0.06mg i.v. (tail vein) twice per week for 5 weeks
[2] = test system: N87 human gastric carcinoma; assay: Comparative in-vivo efficacy test in the N87 mouse gastric carcinoma model (drugs of Example 5 and Example 7); design: species or system mouse (BALB/c-nu)
Description: • Species/strain: BALB/c nude (BALB/c-nu) • Age: 6-8 weeks • Sex: Male • Body weight: 17-19 g
1).Inoculation and grouping: For the N87 human gastric carcinoma model, male BALB/c-nu mice (17.0-19.0 g) were used.Under aseptic conditions, N87 tumor tissue was excised and cut into 2.0 mm × 2.0 mm × 2.0 mm tumor blocks, which were implanted subcutaneously into the left axillary dorsal region of each nude mouse. The day of implantation was designated as Day 0 (D0).When tumor volume reached approximately 250.0 mm^3 (D6), animals with poor tumor take were excluded, and the remaining animals were randomized into groups according to tumor volume; dosing commenced on the day of randomization. 2).Dosing regimen: Table 27
Tumor size is measured three times per week using a vernier caliper. The long diameter (a) and short diameter (b) are recorded. Tumor volume is calculated as: V=0.5×a×b^2
(§1) RTV = Vt /V0 , [formula] where V0 is the tumor volume at grouping/first dosing (D0) and Vt is the tumor volume at each measurement time point.

[3] = Body weight in the comparative N87 study; assay type: in vivo, mouse (BALB/c-nu); details: 0.12mg i.v. (tail vein) once weekly for 6 weeks
[4] = Body weight in the A549 study of the Example 3 drug; assay type: in vivo, mouse (BALB/c-nu)
[5] = test system: A549 lung carcinoma; assay: In-vivo efficacy study in the A549 mouse lung carcinoma model (drugs of Example 6 and Example 20); design: species or system mouse (BALB/cAnSlacNifdc-nu); details: for Tumor growth inhibition rate (TGI, %) at different days post-inoculation: 0.12mg/20g i.v. (tail vein) once weekly, 3 administrations
Description: • Species/strain: BALB/cAnSlacNifdc-nu • Sex: Male • Body weight: 17-21 g
1).Inoculation and grouping: For the A549 mouse lung carcinoma model, male BALB/cAnSlacNifdc-nu mice weighing 17.0-21.0 g were used. Under aseptic conditions, A549 tumor tissue was excised and cut into 2.0 mm × 2.0 mm × 2.0 mm tumor blocks, which were implanted subcutaneously into the left axillary dorsal region of nude mice. The day of implantation was designated as Day 0 (D0).When the tumor volume reached approximately 150.0 mm^3 (D7), animals were randomized by tumor volume into four groups: A (vehicle control), B, C, and D (drug), with 8 animals per group. On the day of randomization, all groups began intravenous (tail-vein) dosing. Groups A, B, C, and subgroup D1 were dosed once weekly for a total of 3 administrations; subgroup D2 was dosed twice weekly for a total of 6 administrations. 2).Dosing regimen: Table 34
(§2) Tumor size is measured twice per week using a vernier caliper. The long diameter (a) and short diameter (b) are recorded. Tumor volume is calculated as: V=0.5×a×b^2.
as §1

[6] = test system: HepG2 liver cancer; assay: In-vivo efficacy study in the HepG2 mouse liver cancer model (drug of Example 6); design: species or system mouse (BALB/cAnSlacNifdc-nu); details: for Tumor growth inhibition rate (TGI, %) at different days post-inoculation: 6 mg/kg (0.12 mg/mouse) i.v. (tail vein) once weekly
Description: • Species/strain: BALB/cAnSlacNifdc-nu • Sex: Male • Body weight: 16-18 g
1).Inoculation and grouping: For the HepG2 mouse liver cancer model, male BALB/cAnSlacNifdc-nu nude mice, weighing 16.0-18.0 g, were used.Under aseptic conditions, HepG2 tumor tissue was excised and cut into 2.0mm×2.0mm×2.0mm tumor blocks, which were uniformly implanted subcutaneously into the left axillary dorsal region of nude mice. The day of implantation was designated as Day 0 (D0).When the tumor volume reached approximately 250.0 mm^3 (D7), animals were randomized by tumor volume into three groups: A (control group), B, and C (treatment groups), with 8 animals per group.On the day of randomization, all animals began intravenous (tail-vein) dosing once weekly for a total of 3 administrations. 2.Dosing regimen: Table 37
as §2
RTV = Vt /V0 , [formula] where V0 is the tumor volume at grouping/first dosing (D0), and Vt is the tumor volume at each measurement time point.
6).Tumor weight: At the end of the study (D23), the remaining animals were euthanized by cervical dislocation. Tumors were excised, weighed, and photographed.

[7] = test system: U251-RFP human glioma; assay: In-vivo efficacy study in the U251-RFP human glioma orthotopic mouse model (drug of Example 9); design: species or system mouse (BALB/c nude); details: 6mg/Kg i.v. (tail vein) twice weekly, 8 administrations
Description: 2.Dosing regimen: Table 41

[8] = 41 days post-N87 inoculation, 0.12mg i.v. (tail vein) once weekly for 6 weeks
[9] = end of the study (D29), intravenous administration

## COc1cccc2c1C(=O)c1c(O)c3c(c(O)c1C2=O)C[C@@](O)(C(=O)CO)C[C@@H]3O[C@H]1C[C@H](N)[C@@H](O)[C@H](C)O1 [Epirubicin drug substance (API), Epirubicin]
[1]
  Body-weight difference between Day 37 and Day 6: 0.91 g
[2]; [8]
  Tumor weight: 0.62 ± 0.55 g
  Tumor-weight inhibition rate, IRTW (%): 51.74%
[2]; Day 10, 0.12mg i.v. (tail vein) once weekly for 6 weeks
  Tumor growth inhibition rate (TGI, %) at different post-inoculation days: 41.17%
[2]; Day 13, 0.12mg i.v. (tail vein) once weekly for 6 weeks
  Tumor growth inhibition rate (TGI, %) at different post-inoculation days: 34.62%
[2]; Day 17, 0.12mg i.v. (tail vein) once weekly for 6 weeks
  Tumor growth inhibition rate (TGI, %) at different post-inoculation days: 37.16%
[2]; Day 20, 0.12mg i.v. (tail vein) once weekly for 6 weeks
  Tumor growth inhibition rate (TGI, %) at different post-inoculation days: 35.17%
[2]; Day 24, 0.12mg i.v. (tail vein) once weekly for 6 weeks
  Tumor growth inhibition rate (TGI, %) at different post-inoculation days: 43.86%
[2]; Day 27, 0.12mg i.v. (tail vein) once weekly for 6 weeks
  Tumor growth inhibition rate (TGI, %) at different post-inoculation days: 43.86%
[2]; Day 31, 0.12mg i.v. (tail vein) once weekly for 6 weeks
  Tumor growth inhibition rate (TGI, %) at different post-inoculation days: 44.19%
[2]; Day 34, 0.12mg i.v. (tail vein) once weekly for 6 weeks
  Tumor growth inhibition rate (TGI, %) at different post-inoculation days: 42.97%
[2]; Day 38, 0.12mg i.v. (tail vein) once weekly for 6 weeks
  Tumor growth inhibition rate (TGI, %) at different post-inoculation days: 40.97%
[2]; Day 41, 0.12mg i.v. (tail vein) once weekly for 6 weeks
  Tumor growth inhibition rate (TGI, %) at different post-inoculation days: 51.83%
[2]; end of the study (D41), tail-vein injection
  tumor growth inhibition rate calculated from tumor weight and tumor volume: < 60%
[3]
  Body-weight difference (g) between Day 41 and Day 6: 3.29 g
[4]; 0.08mg i.v. (tail vein) twice weekly for 5 weeks
  Body-weight difference (g) between Day 32 and Day 5: 6.3 g
[4]; 0.12mg i.v. (tail vein) twice weekly for 5 weeks
  Body-weight difference (g) between Day 32 and Day 5: 6.1 g
[4]; 0.14mg i.v. (tail vein) twice weekly for 5 weeks
  Body-weight difference (g) between Day 32 and Day 5: 0.2 g
[5]; Day 11
  Tumor growth inhibition rate (TGI, %) at different days post-inoculation: 27.01%
[5]; Day 14
  Tumor growth inhibition rate (TGI, %) at different days post-inoculation: 45.82%
[5]; Day 18
  Tumor growth inhibition rate (TGI, %) at different days post-inoculation: 43.61%
[5]; Day 21
  Tumor growth inhibition rate (TGI, %) at different days post-inoculation: 44.97%
[5]; Day 25
  Tumor growth inhibition rate (TGI, %) at different days post-inoculation: 46.31%
[5]; Day 29
  Tumor growth inhibition rate (TGI, %) at different days post-inoculation: 49.64%
[5]; [9]
  T/C: greater than 40%
  tumor growth inhibition rate (calculated based on tumor volume): less than 60%
[6]; 23 days post-HepG2 inoculation, 6 mg/kg (0.12 mg/mouse) i.v. once weekly, 3 administrations
  Tumor weight inhibition rate, IRTW (%): 25.20%
[6]; Day 10, 3 administrations
  Tumor growth inhibition rate (TGI, %) at different days post-inoculation: 16.33%
[6]; Day 14, 3 administrations
  Tumor growth inhibition rate (TGI, %) at different days post-inoculation: 36.16%
[6]; Day 21, 3 administrations
  Tumor growth inhibition rate (TGI, %) at different days post-inoculation: 24.72%
[6]; Day 23, 3 administrations
  Tumor growth inhibition rate (TGI, %) at different days post-inoculation: 22.08%
[6]; end of the study (D23), intravenous injection
  tumor growth inhibition rate (calculated based on tumor weight and tumor volume): less than 60%
[7]; Day 6
  Tumor growth inhibition rate (TGI, %) at different days post-inoculation: 35.8%
[7]; Day 10
  Tumor growth inhibition rate (TGI, %) at different days post-inoculation: -3.9%
[7]; Day 13
  Tumor growth inhibition rate (TGI, %) at different days post-inoculation: -7.1%
[7]; Day 17
  Tumor growth inhibition rate (TGI, %) at different days post-inoculation: 19.4%
